Assay results taken from article PMC11110727, “Exploiting thiol-functionalized benzosiloxaboroles for achieving diverse substitution patterns – synthesis, characterization and biological evaluation of promising antibacterial agents” (RSC Medicinal Chemistry, 2024).
≈ marks a conversion by molar mass, not a printed value.

Columns and labels:
B. cepacia ATCC 25416 = assay: Antibacterial activity: MIC/MBC, disc-diffusion; format: cell-based, Burkholderia cepacia; conditions: Burkholderia cepacia, ATCC25416; B. cepacia ATCC 25416; read-out: MIC
Protocol: (§1) Direct antimicrobial activity was determined against the following standard strains: (1) Gram-positive cocci: methicillin-sensitive Staphylococcus aureus ATCC 6538P (MSSA), methicillin-resistant S. aureus subsp. aureus ATCC 43300 (MRSA), S. epidermidis ATCC 12228, Enterococcus faecium ATCC 6057, E. faecalis ATCC 29212, Bacillus subtilis ATCC 6633; (2) Gram-negative bacteria from Enterobacteriales order: Klebsiella pneumoniae ATCC 13883, Escherichia coli ATCC 25922, Enterobacter cloacae DSM 6234, Proteus mirabilis ATCC 12453, Serratia marcescens ATCC 13880; (3) Gram-negative non-fermentative rods: Acinetobacter baumannii ATCC 19606, Pseudomonas aeruginosa ATCC 27853, Stenotrophomonas maltophilia ATCC 12714, S. maltophilia ATCC 13637, Burkholderia cepacia ATCC 25416, Bordetella bronchiseptica ATCC 4617; (4) yeasts: Candida albicans ATCC 90028, C. krusei ATCC 6258, C. parapsilosis ATCC 22019, C. tropicalis (Castellani) Berkhout ATCC 750, C. tropicalis IBA 171, C. guilliermondii IBA 155, and Saccharomyces cerevisiae ATCC 9763. Moreover, 5 clinical strains of methicillin-resistant S. aureus were also included: NMI 664 K, NMI 1576 K, NMI 1712 K, NMI 1991 K, and NMI 2541 K. All strains were stored at −80 °C. Prior to testing, each bacterial strain was subcultured twice on tryptic soy agar TSA (bioMerieux) medium and yeast strains on Sabouraud dextrose agar (bioMerieux) for 24–48 h at 30 °C to ensure viability. The antimicrobial activity was evaluated as previously described[26] by the disc-diffusion method and the MIC determination assays according to the EUCAST (ref. [71] and [72]) and CLSI (ref. [53] and [73]) recommendations. Assessment of bactericidal (MBC) and fungicidal (MFC) activities was performed according to the CLSI recommendations.[54,74] […] The new benzosiloxaboroles were dissolved in DMSO (Sigma).
(§2) Considering that the MDR efflux pumps often contribute to Gram-negative rod resistance, the MIC values of studied agents, with or without the pump inhibitor, PAβN (20 μg mL^−1) (Sigma), were determined.[75] The MIC was determined using Mueller–Hinton II broth medium (MHB) (Becton Dickinson) by the broth microdilution method, according to the CLSI guideliness.[53] To minimize the influence of PAβN on the destabilization of bacterial cell covers, the tests were conducted in the presence of 1 mM MgSO4 (Sigma).[76] At least a 4-fold reduction in the MIC value after the addition of PAβN was considered significant.[56,77]

P. aeruginosa ATCC 27853 = assay: Antibacterial activity: MIC/MBC, MIC with PAβN, disc-diffusion; format: cell-based; conditions: Pseudomonas aeruginosa, ATCC27853; P. aeruginosa ATCC 27853; read-out: MIC
Protocol: as §1, §2

E. cloacae DSM 6234 = assay: as above; format: cell-based, Enterobacter cloacae; conditions: Enterobacter cloacae, DSM6234; E. cloacae DSM 6234; read-out: MIC
Protocol: as §1, §2

S. aureus ATCC 6538P = assay: Antibacterial activity: MIC/MBC determination and disc-diffusion; format: cell-based, Staphylococcus aureus; conditions: S. aureus ATCC 6538P; for diameter of inhibition zone: disc-diffusion, — = zone not observed; for MBC / MIC: Staphylococcus aureus, ATCC6538P; for MBC: read-out: MBC (first MBC where Eagle effect); for MIC: read-out: MIC
Protocol: (§3) Direct antimicrobial activity was determined against the following standard strains: (1) Gram-positive cocci: methicillin-sensitive Staphylococcus aureus ATCC 6538P (MSSA), methicillin-resistant S. aureus subsp. aureus ATCC 43300 (MRSA), S. epidermidis ATCC 12228, Enterococcus faecium ATCC 6057, E. faecalis ATCC 29212, Bacillus subtilis ATCC 6633; (2) Gram-negative bacteria from Enterobacteriales order: Klebsiella pneumoniae ATCC 13883, Escherichia coli ATCC 25922, Enterobacter cloacae DSM 6234, Proteus mirabilis ATCC 12453, Serratia marcescens ATCC 13880; (3) Gram-negative non-fermentative rods: Acinetobacter baumannii ATCC 19606, Pseudomonas aeruginosa ATCC 27853, Stenotrophomonas maltophilia ATCC 12714, S. maltophilia ATCC 13637, Burkholderia cepacia ATCC 25416, Bordetella bronchiseptica ATCC 4617; (4) yeasts: Candida albicans ATCC 90028, C. krusei ATCC 6258, C. parapsilosis ATCC 22019, C. tropicalis (Castellani) Berkhout ATCC 750, C. tropicalis IBA 171, C. guilliermondii IBA 155, and Saccharomyces cerevisiae ATCC 9763. Moreover, 5 clinical strains of methicillin-resistant S. aureus were also included: NMI 664 K, NMI 1576 K, NMI 1712 K, NMI 1991 K, and NMI 2541 K. All strains were stored at −80 °C. Prior to testing, each bacterial strain was subcultured twice on tryptic soy agar TSA (bioMerieux) medium and yeast strains on Sabouraud dextrose agar (bioMerieux) for 24–48 h at 30 °C to ensure viability. The antimicrobial activity was evaluated as previously described[26] by the disc-diffusion method and the MIC determination assays according to the EUCAST (ref. [71] and [72]) and CLSI (ref. [53] and [73]) recommendations. Assessment of bactericidal (MBC) and fungicidal (MFC) activities was performed according to the CLSI recommendations.[54,74] The following reference agents were used: fluconazole (in the case of fungi), linezolid (for Gram-positive bacteria), and nitrofurantoin (for Gram-negative rods). The new benzosiloxaboroles were dissolved in DMSO (Sigma).

S. cerevisiae ATCC 9763 = assay: Antifungal activity: MIC/MFC, disc-diffusion; format: cell-based, Saccharomyces cerevisiae; conditions: for MIC: Saccharomyces cerevisiae, ATCC9763, read-out: MIC
Protocol: as §3

[1] = tested on: B. bronchiseptica ATCC 4617; assay: Antibacterial activity: MIC/MBC, disc-diffusion; format: cell-based, Bordetella bronchiseptica; conditions: Bordetella bronchiseptica, ATCC4617; B. bronchiseptica ATCC 4617; read-out: MIC
Protocol: as §1, §2

C. albicans ATCC 90028 = assay: Antifungal activity: MIC/MFC, disc-diffusion; format: cell-based, Candida albicans; conditions: for MIC: Candida albicans, ATCC90028, read-out: MIC
Protocol: as §3

[2] = tested on: C. parapsilosis ATCC 22019; assay: Antifungal activity: MIC/MFC, disc-diffusion; format: cell-based; conditions: Lodderomyces parapsilosis, ATCC22019; read-out: MIC
Protocol: as §3

[3] = tested on: C. guilliermondii IBA 155; assay: Antifungal activity: MIC/MFC, disc-diffusion; format: cell-based; conditions: Meyerozyma guilliermondii, IBA155; read-out: MIC
Protocol: as §3

C. tropicalis IBA 171 = assay: Antifungal activity: MIC/MFC, disc-diffusion; format: cell-based; conditions: Candida tropicalis, IBA171; read-out: MIC
Protocol: as §3

C. tropicalis ATCC 750 = assay: Antifungal activity: MIC/MFC, disc-diffusion; format: cell-based; conditions: Candida tropicalis, ATCC750; read-out: MIC
Protocol: as §3

Structure (SMILES): C[Si]1(C)OB(O)c2cc(F)c(S)c(F)c21 [Compound 1e, 5,7-Difluoro-6-mercapto-1,1-dimethylbenzo[c][1,2,5]oxasilaborol-3(1H)-ol]
- MIC (B. cepacia ATCC 25416): > 400 µg/mL
- MIC (P. aeruginosa ATCC 27853): > 400 µg/mL
- MIC (E. cloacae DSM 6234): > 400 µg/mL
- diameter of inhibition zone (S. aureus ATCC 6538P): 19 mm
- MBC (S. aureus ATCC 6538P): 25 µg/mL (≈ 102 µM)
- MIC (S. aureus ATCC 6538P): 12.5 µg/mL (≈ 50.8 µM)
- diameter of inhibition zone (S. cerevisiae ATCC 9763; S. cerevisiae ATCC 9763, (-) = zone not observed, paper discs 9 mm): 17 mm
- MIC (S. cerevisiae ATCC 9763): 200 µg/mL (≈ 813 µM)
- MIC [1]: > 400 µg/mL
- diameter of inhibition zone (C. albicans ATCC 90028; C. albicans ATCC 90028, (-) = zone not observed, paper discs 9 mm): 15 mm
- MIC (C. albicans ATCC 90028): 100 µg/mL (≈ 406 µM)
- MIC [2]: 400 µg/mL (≈ 1630 µM)
- MIC [3]: > 400 µg/mL
- MIC (C. tropicalis IBA 171): 200 µg/mL (≈ 813 µM)
- MIC (C. tropicalis ATCC 750): 400 µg/mL (≈ 1630 µM)

Structure (SMILES): C[Si]1(C)OB(O)c2ccc(S)c(F)c21 [Compound 2e, 7-Fluoro-6-mercapto-1,1-dimethylbenzo[c][1,2,5]oxasilaborol-3(1H)-ol]
- MIC (B. cepacia ATCC 25416): > 100 µg/mL
- MIC (P. aeruginosa ATCC 27853): > 100 µg/mL
- MIC (E. cloacae DSM 6234): > 100 µg/mL
- diameter of inhibition zone (S. aureus ATCC 6538P): 20 mm
- MBC (S. aureus ATCC 6538P): 25 µg/mL (≈ 110 µM)
- MIC (S. aureus ATCC 6538P): 12.5 µg/mL (≈ 54.8 µM)
- MIC (S. cerevisiae ATCC 9763): > 100 µg/mL
- MIC [1]: > 100 µg/mL
- MIC (C. albicans ATCC 90028): > 100 µg/mL
- MIC [2]: > 100 µg/mL
- MIC [3]: > 100 µg/mL
- MIC (C. tropicalis IBA 171): > 100 µg/mL
- MIC (C. tropicalis ATCC 750): > 100 µg/mL

Structure (SMILES): CC(=O)CCSc1c(F)cc2c(c1F)[Si](C)(C)OB2O [Compound 3, 4-((5,7-Difluoro-3-hydroxy-1,1-dimethyl-1,3-dihydrobenzo[c][1,2,5]oxasilaborol-6-yl)thio)butan-2-one]
- MIC (B. cepacia ATCC 25416): > 400 µg/mL
- MIC (P. aeruginosa ATCC 27853): > 400 µg/mL
- MIC (E. cloacae DSM 6234): > 400 µg/mL
- diameter of inhibition zone (S. aureus ATCC 6538P): 23 mm
- MBC (S. aureus ATCC 6538P): 100 µg/mL (≈ 316 µM)
- MIC (S. aureus ATCC 6538P): 50 µg/mL (≈ 158 µM)
- MIC (S. cerevisiae ATCC 9763): 400 µg/mL (≈ 1260 µM)
- MIC [1]: 50 µg/mL (≈ 158 µM)
- MIC (C. albicans ATCC 90028): > 400 µg/mL
- MIC [2]: 100 µg/mL (≈ 316 µM)
- MIC [3]: 200 µg/mL (≈ 632 µM)
- MIC (C. tropicalis IBA 171): 400 µg/mL (≈ 1260 µM)
- MIC (C. tropicalis ATCC 750): > 400 µg/mL
